Data taken from the supplement of paper PMC10307832.

What was measured:
Assay in all cases: relative viability (nuclei count vs DMSO), 5 days (fraction); higher = more cells survive
H3255 = tested on: H3255
Procedure, shortened: (§1)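 Relative viability divides the nuclei count in treated wells by that in vehicle wells. Lung cancer cell lines were seeded in 1536-well plates, dosed by pin tool the next day, and fixed and stained after 5 days in one step with final 0.05% Triton X-100, 1% formaldehyde and 1 ug/ml Hoechst. Dosing was a single drug or a fixed anchor-drug dose plus five library-drug doses (not always all listed) in √10 steps, and values are medians of duplicate plates imaged at 4×.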

SK-LU-1 = tested on: SK-LU-1
Procedure, shortened: as §1

NCI-H358 = tested on: NCI-H358
Procedure, shortened: as §1

NCI-H2405 = tested on: NCI-H2405
Procedure, shortened: as §1

NCI-H1648 = tested on: NCI-H1648
Procedure, shortened: as §1

BEN = tested on: BEN
Procedure, shortened: as §1

NCI-H1650 = tested on: NCI-H1650
Procedure, shortened: as §1

UMC-11 = tested on: UMC-11
Procedure, shortened: as §1

A-427 = tested on: A-427
Procedure, shortened: as §1

NCI-H1666 = tested on: NCI-H1666
Procedure, shortened: as §1

NCI-H727 = tested on: NCI-H727
Procedure, shortened: as §1

NCI-H2126 = tested on: NCI-H2126
Procedure, shortened: as §1

NCI-H2087 = tested on: NCI-H2087
Procedure, shortened: as §1

NCI-H2009 = tested on: NCI-H2009
Procedure, shortened: as §1

NCI-H3122 = tested on: NCI-H3122
Procedure, shortened: as §1

EKVX = tested on: EKVX
Procedure, shortened: as §1

NCI-H520 = tested on: NCI-H520
Procedure, shortened: as §1

NCI-H441 = tested on: NCI-H441
Procedure, shortened: as §1

NCI-H322M = tested on: NCI-H322M
Procedure, shortened: as §1

NCI-H23 = tested on: NCI-H23
Procedure, shortened: as §1

NCI-H1755 = tested on: NCI-H1755
Procedure, shortened: as §1

NCI-H1437 = tested on: NCI-H1437
Procedure, shortened: as §1

NCI-H2347 = tested on: NCI-H2347
Procedure, shortened: as §1

ChaGo-K-1 = tested on: ChaGo-K-1
Procedure, shortened: as §1

`Oc1nc(-c2ccc(C(F)(F)F)cc2)nc2c1CSCC2` [XAV939] + O=C(CCCCCCC(=O)Nc1ccccc1)NO [Vorinostat] (partner 1 µM) showed a relative viability (H3255; first compound 0.08 µM) of 0.809, a relative viability (H3255; first compound 0.253 µM) of 0.692 and a relative viability (H3255; first compound 0.8 µM) of 0.648. The relative viability (H3255; first compound 2.53 µM) was 0.712, the relative viability (SK-LU-1; first compound 0.08 µM) was 0.872 and the relative viability (SK-LU-1; first compound 0.253 µM) was 0.755. For the same compound, the relative viability (SK-LU-1; first compound 0.8 µM) was 0.892, the relative viability (SK-LU-1; first compound 2.53 µM) was 0.87 and the relative viability (NCI-H358; first compound 0.08 µM) was 0.796. For the same compound, the relative viability (NCI-H358; first compound 0.253 µM) was 0.49, the relative viability (NCI-H358; first compound 0.8 µM) was 0.658 and the relative viability (NCI-H358; first compound 2.53 µM) was 0.565. The relative viability (NCI-H2405; first compound 0.08 µM) was 0.639, the relative viability (NCI-H2405; first compound 0.253 µM) was 0.922 and the relative viability (NCI-H2405; first compound 0.8 µM) was 0.913. It also gave a relative viability (NCI-H2405; first compound 2.53 µM) of 0.925, a relative viability (NCI-H1648; first compound 0.253 µM) of 0.522 and a relative viability (NCI-H1648; first compound 0.8 µM) of 0.315. For the same compound, the relative viability (NCI-H1648; first compound 2.53 µM) was 0.285, the relative viability (BEN; first compound 0.08 µM) was 0.556 and the relative viability (BEN; first compound 0.253 µM) was 0.587. For the same compound, the relative viability (BEN; first compound 0.8 µM) was 0.514, the relative viability (BEN; first compound 2.53 µM) was 0.418 and the relative viability (NCI-H1650; first compound 0.08 µM) was 0.909. The relative viability (NCI-H1650; first compound 0.253 µM) was 0.524, the relative viability (NCI-H1650; first compound 0.8 µM) was 0.391 and the relative viability (NCI-H1650; first compound 2.53 µM) was 0.525. For the same compound, the relative viability (UMC-11; first compound 0.08 µM) was 0.364, the relative viability (UMC-11; first compound 0.253 µM) was 0.267 and the relative viability (UMC-11; first compound 0.8 µM) was 0.305. The relative viability (UMC-11; first compound 2.53 µM) was 0.274, the relative viability (A-427; first compound 0.08 µM) was 0.804 and the relative viability (A-427; first compound 0.253 µM) was 0.869. For the same compound, the relative viability (A-427; first compound 0.8 µM) was 0.895, the relative viability (A-427; first compound 2.53 µM) was 0.745 and the relative viability (NCI-H1666; first compound 0.08 µM) was 0.978. It also gave a relative viability (NCI-H1666; first compound 0.253 µM) of 0.889, a relative viability (NCI-H1666; first compound 0.8 µM) of 0.906 and a relative viability (NCI-H1666; first compound 2.53 µM) of 1.15. It also gave a relative viability (NCI-H727; first compound 0.08 µM) of 1.25, a relative viability (NCI-H727; first compound 0.8 µM) of 1 and a relative viability (NCI-H727; first compound 2.53 µM) of 1.02. It also gave a relative viability (NCI-H2126; first compound 0.08 µM) of 0.835, a relative viability (NCI-H2126; first compound 0.253 µM) of 0.587 and a relative viability (NCI-H2126; first compound 0.8 µM) of 0.733. For the same compound, the relative viability (NCI-H2126; first compound 2.53 µM) was 0.564, the relative viability (NCI-H2087; first compound 0.08 µM) was 0.978 and the relative viability (NCI-H2087; first compound 0.253 µM) was 0.561. For the same compound, the relative viability (NCI-H2087; first compound 0.8 µM) was 0.654, the relative viability (NCI-H2087; first compound 2.53 µM) was 0.594 and the relative viability (NCI-H2009; first compound 0.08 µM) was 0.754. It also gave a relative viability (NCI-H2009; first compound 0.253 µM) of 0.709, a relative viability (NCI-H2009; first compound 0.8 µM) of 0.743 and a relative viability (NCI-H2009; first compound 2.53 µM) of 0.536. It also gave a relative viability (NCI-H3122; first compound 0.08 µM) of 1.03, a relative viability (NCI-H3122; first compound 0.253 µM) of 0.401 and a relative viability (NCI-H3122; first compound 0.8 µM) of 0.904. For the same compound, the relative viability (NCI-H3122; first compound 2.53 µM) was 0.997, the relative viability (EKVX; first compound 0.08 µM) was 0.816 and the relative viability (EKVX; first compound 0.8 µM) was 0.678. For the same compound, the relative viability (EKVX; first compound 2.53 µM) was 0.423, the relative viability (NCI-H520; first compound 0.08 µM) was 0.722 and the relative viability (NCI-H520; first compound 0.8 µM) was 0.747. The relative viability (NCI-H520; first compound 2.53 µM) was 0.717, the relative viability (NCI-H441; first compound 0.08 µM) was 1.02 and the relative viability (NCI-H441; first compound 0.253 µM) was 0.822. It also gave a relative viability (NCI-H441; first compound 0.8 µM) of 1.09, a relative viability (NCI-H441; first compound 2.53 µM) of 0.782 and a relative viability (NCI-H322M; first compound 0.08 µM) of 1.1. It also gave a relative viability (NCI-H322M; first compound 0.253 µM) of 0.805, a relative viability (NCI-H322M; first compound 0.8 µM) of 0.826 and a relative viability (NCI-H322M; first compound 2.53 µM) of 0.622. The relative viability (NCI-H23; first compound 0.08 µM) was 0.684, the relative viability (NCI-H23; first compound 0.8 µM) was 0.66 and the relative viability (NCI-H23; first compound 2.53 µM) was 0.415. For the same compound, the relative viability (NCI-H1755; first compound 0.08 µM) was 0.783, the relative viability (NCI-H1755; first compound 0.253 µM) was 0.729 and the relative viability (NCI-H1755; first compound 0.8 µM) was 0.74. For the same compound, the relative viability (NCI-H1755; first compound 2.53 µM) was 0.602, the relative viability (NCI-H1437; first compound 0.08 µM) was 0.834 and the relative viability (NCI-H1437; first compound 0.253 µM) was 0.649. For the same compound, the relative viability (NCI-H1437; first compound 0.8 µM) was 0.62, the relative viability (NCI-H1437; first compound 2.53 µM) was 0.477 and the relative viability (NCI-H2347; first compound 0.08 µM) was 0.609. It also gave a relative viability (NCI-H2347; first compound 0.253 µM) of 0.496, a relative viability (NCI-H2347; first compound 0.8 µM) of 0.593 and a relative viability (NCI-H2347; first compound 2.53 µM) of 0.414. It also gave a relative viability (ChaGo-K-1; first compound 0.08 µM) of 0.751, a relative viability (ChaGo-K-1; first compound 0.253 µM) of 0.707 and a relative viability (ChaGo-K-1; first compound 0.8 µM) of 0.747. It also gave a relative viability (ChaGo-K-1; first compound 2.53 µM) of 0.643.
